Patent publication EP4722219A1 (Gan & Lee Pharmaceuticals Co., Ltd., priority 2023, dated 2024)

Experiments:
Format in all cases: cell-based
AR protein = biological target: T1, AR protein (Homo sapiens, UniProt P10275, T878A); test: AR protein degradation in LNCaP cells (Western blot); conditions: 8 hours; for Degradation of AR protein in LNCaP cells, 10 nM (%) / percent AR protein degradation at a fixed concentration at 0.01 µM: 10 nM; for Degradation of AR protein in LNCaP cells, 100 nM (%) / percent AR protein degradation at a fixed concentration at 0.1 µM: 100 nM
T1 construct: host or cells: LNCaP FGC
T1 sequence (P10275 1-920 T878A): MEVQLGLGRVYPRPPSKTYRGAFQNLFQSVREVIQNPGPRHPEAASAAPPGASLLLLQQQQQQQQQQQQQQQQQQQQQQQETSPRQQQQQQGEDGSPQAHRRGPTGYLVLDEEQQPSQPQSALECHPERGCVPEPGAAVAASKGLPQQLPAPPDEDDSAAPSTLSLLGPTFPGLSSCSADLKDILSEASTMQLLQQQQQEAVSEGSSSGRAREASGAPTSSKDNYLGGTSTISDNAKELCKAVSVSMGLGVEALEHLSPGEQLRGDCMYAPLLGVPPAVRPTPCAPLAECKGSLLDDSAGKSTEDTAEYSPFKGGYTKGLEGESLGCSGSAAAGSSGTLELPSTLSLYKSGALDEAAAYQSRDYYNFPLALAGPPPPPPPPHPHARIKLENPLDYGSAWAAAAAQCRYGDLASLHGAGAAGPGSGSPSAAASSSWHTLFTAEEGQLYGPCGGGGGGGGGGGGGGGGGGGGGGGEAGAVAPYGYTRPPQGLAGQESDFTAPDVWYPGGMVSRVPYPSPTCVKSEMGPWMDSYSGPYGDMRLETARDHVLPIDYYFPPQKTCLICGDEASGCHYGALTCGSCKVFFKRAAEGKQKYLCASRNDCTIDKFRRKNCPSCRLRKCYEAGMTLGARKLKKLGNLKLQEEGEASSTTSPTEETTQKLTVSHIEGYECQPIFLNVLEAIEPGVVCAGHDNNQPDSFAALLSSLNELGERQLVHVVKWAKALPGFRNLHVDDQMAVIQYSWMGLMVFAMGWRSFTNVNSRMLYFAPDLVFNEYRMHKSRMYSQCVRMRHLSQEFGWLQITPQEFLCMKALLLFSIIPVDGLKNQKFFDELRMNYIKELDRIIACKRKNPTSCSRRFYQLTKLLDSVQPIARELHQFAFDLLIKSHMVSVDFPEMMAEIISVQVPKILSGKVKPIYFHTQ
Outline: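 LNCaP cells exposed to compound or solvent control for 8 h, lysed in RIPA, protein normalized by BCA. AR detected by SDS-PAGE/Western blot with infrared imaging; band grayscale normalized to GAPDH to calculate AR degradation rate.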

VCaP cells = test: Inhibition of VCaP cell proliferation (WST-8); conditions: 168 hours
Outline: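 VCaP cells seeded at 15,000/well in DMEM + 10% FBS, treated next day with nine 5-fold dilutions from 10 µM (final) at 37°C, 5% CO2. Viability read by WST-8 absorbance at 450 nm on day 9.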

LNCaP cells = test: Inhibition of LNCaP cell proliferation (WST-8); conditions: LNCaP FGC cells, 96 hours
Outline: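 Cells were seeded and cultured overnight at 37 °C, 5% CO2, then exposed for 96 h to compound at 9 concentrations, 5-fold serial dilution from 10 µM final. Viability was read by WST-8 absorbance at 450 nm.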

| Compound | Degradation of AR protein in LNCaP cells, 10 nM (%) (AR protein) | Degradation of AR protein in LNCaP cells, 100 nM (%) (AR protein) | IC50 (VCaP cells; Homo sapiens) | IC50 (LNCaP cells; Homo sapiens) | IC50 (VCaP cells) | IC50 (LNCaP cells) | percent AR protein degradation at a fixed concentration at 0.01 µM (AR protein) | percent AR protein degradation at a fixed concentration at 0.1 µM (AR protein) |
| --- | --- | --- | --- | --- | --- | --- | --- | --- |
| COc1cc(O[C@H]2C(C)(C)[C@H](NC(=O)c3ccc(N4CCC(CN5CCC6(CC5)COc5c6ccc(C(=O)N[C@H]6CCC(=O)NC6=O)c5F)CC4)cc3)C2(C)C)ccc1C#N [A-P-83] | 41% | 65% | 2580 nM | 0.71 µM |  |  |  |  |
| COc1cc(O[C@H]2C(C)(C)[C@H](NC(=O)c3ccc(N4CCC(C)(CN5CC6(CCC7(CC6)COc6c7ccc7c6CN(C6CCC(=O)NC6=O)C7=O)C5)CC4)cc3)C2(C)C)ccc1C#N (relative stereo) [A-P-4] | 74% | 83% | 0.19 nM | 3.52 µM |  |  |  |  |
| COc1cc(O[C@H]2C(C)(C)[C@H](NC(=O)c3ccc(N4CCC(CN5CCC6(CCc7cc(C(=O)N[C@H]8CCC(=O)NC8=O)c(F)cc7O6)CC5)CC4)cc3)C2(C)C)ccc1C#N [A-P-30] | 41% | 78% | 1000 nM | 1.48 µM |  |  |  |  |
| Cn1c(=O)n(C2CCC(=O)NC2=O)c2cc3c(cc21)C1(CCN(C2CC4(CCN(c5ccc(C(=O)N[C@H]6CC[C@H](Oc7ccc(C#N)c(Cl)c7)CC6)nn5)CC4)C2)CC1)CO3 (relative stereo) [A-P-12, N-((1r,4r)-4-(3-chloro-4-cyanophenoxy)cyclohexy 1)-6-(2-(3-(2,6-dioxopiperidin-3-yl)-1-methyl-2-oxo-2,3-dihydro-1H,6H-spiro[benzofuro[5,6-d]imidazole-7,4'-piperidin]-1'-yl)-7-azaspiro[3.5]nonan-7-yl)pyridazine-3-carboxamide] | 56% | 9% | 0.023 nM | 8.11 µM |  |  |  |  |
| (S)-3-((1-(4-(((S)-2-(3-chloro-4-cyanophenyl)-3-methyl-2,8-diazaspiro[4.5]decan-8-yl)phenyl)piperidin-4-yl)methyl)-N-(((S)-2,6-dioxopiperidin-3-yl)-1,2,3,4,4a,5-hexahydrobenzo[b]pyrazi no[1,2-d][1,4]oxazine-8-carboxamide [A-P-57] | 39% | 76% |  |  | 3020 nM | 0.67 µM |  |  |
| COc1cc(O[C@H]2C(C)(C)[C@H](NC(=O)c3ccc(N4CCC5(CC4)CC(N4CCC6(CC4)COc4cc7c(cc46)n(C)c(=O)n7C4CCC(=O)NC4=O)C5)nn3)C2(C)C)ccc1C#N (relative stereo) [A-P-14, N-((1r,3r)-3-(4-cyano-3-methoxyphenoxy)-2,2,4,4-tetramethylcyclobutyl)-6-(2-(3-(2,6-dioxopiperidin-3-yl)-1-methyl-2-oxo-2,3-dihydro-1H,6H-spiro[benzofuro[5,6-d]imidazole-7,4'-piperidin]-1'-yl)-7-azaspiro[3.5]nonan-7-yl)pyridazine-3-carboxamide] | 36% | 32% | 2.2 nM | 1.1 µM |  |  |  |  |
| COc1cc(O[C@H]2C(C)(C)[C@H](NC(=O)c3ccc(N4CCC(C)(CN5CCC6(CCc7cc(C(=O)N[C@H]8CCC(=O)NC8=O)c(F)cc7O6)CC5)CC4)cn3)C2(C)C)ccc1C#N [A-P-43, 1'-((1-(6-(((1r,3r)-3-(4-cyano-3-methoxyphenoxy)-2,2,4,4-tetramethylcyclobutyl)carbamoyl)pyridin-3-yl)-4-methylpiperidin-4-yl)methyl)-N-((S)-2,6-dioxopiperidin-3-yl)-7-fluorospiro[chroman-2,4'-piperidin]-6-carboxamide] | 8% | 35% | 1550 nM | 0.36 µM |  |  |  |  |
| COc1cc(O[C@H]2C(C)(C)[C@H](NC(=O)c3ccc(N4CCC(C)(CN5CCC6(CCc7cc(F)c(C(=O)N[C@H]8CCC(=O)NC8=O)cc7O6)CC5)CC4)cc3)C2(C)C)ccc1C#N [A-P-38, 1-(1-(4-((1R,3R)-3-((4-cyano-3-methoxyphenoxy)-2,2,4,4-tetramethylcyclobutyl)carbamoyl)phenyl)-4-methylpiperidin-4-methyl)-N-((S)-2,6-dioxopiperidin-3-yl)-6-fluorospiro[chroman-2,4'-piperidin]-7-carboxamide] | -2% | 0% | > 10000 nM | 1.49 µM |  |  |  |  |
| Cn1c(=O)n(C2CCC(=O)NC2=O)c2ccc3c(c21)OCC31CCN(CC2CCN(c3ccc(C(=O)N[C@H]4CC[C@H](Oc5ccc(C#N)c(Cl)c5)CC4)nn3)CC2)CC1 (some centres unmarked) [A-P-24] |  |  | 0.0081 nM | 22.8 µM |  |  | 49% | 29% |
| COc1cc(O[C@H]2C(C)(C)[C@H](NC(=O)c3ccc(N4CCC(CN5CCC6(CC5)COc5c6ccc(C(=O)N[C@H]6CCC(=O)NC6=O)c5F)(OC)CC4)cc3)C2(C)C)ccc1C#N [A-P-86, 1'-((1-(4-(((1r,3r)-3-(4-cyano-3-methoxyphenoxy)-2,2,4,4-tetramethylcyclobutyl)carbamoyl)phenyl)-4-methoxypiperidin-4-yl)methyl)-N-((S)-2,6-dioxopiperidin-3-yl)-7-fluoro-2H-spiro[benzofuran-3,4'-piperidin]-6-carboxamide] | 37% | 39% | 1790 nM | 0.39 µM |  |  |  |  |
| COc1cc(O[C@H]2C(C)(C)[C@H](NC(=O)c3ccc(N4CCC(C)(CN5CCC6(CCc7cc(C(=O)N[C@H]8CCC(=O)NC8=O)c(F)cc7O6)CC5)CC4)cc3)C2(C)C)ccc1C#N [A-P-31, 1'-((1-((4-((1r,3r)-3-(4-cyano-3-methoxyphenoxy)-2,2,4,4-tetramethylcyclobutyl)carbamoyl)phenyl)-4-methylpiperidin-4-yl)methyl)-N-((S)-2,6-dioxopiperidin-3-yl)-7-fluorospiro[2,4'-piperidin]-6-carboxamide] |  |  | 3170 nM | 0.58 µM |  |  | 47% | 71% |
